Results taken from ChEMBL document CHEMBL5260848, “Recent advancements in the development of bioactive pyrazoline derivatives” (Eur J Med Chem, 2020).
Converted amounts (≈) assume the structure as drawn.

What was measured:
Staphylococcus aureus = experiment: microbe, parasite or virus in culture
Ca9-22 = experiment: Cytotoxicity against human Ca9-22 cells assessed as reduction in cell viability incubated for 48 hrs by MTT assay; type: functional
HSC-2 = experiment: Cytotoxicity against human HSC-2 cells assessed as reduction in cell viability incubated for 48 hrs by MTT assay; type: functional
HSC-3 = experiment: Cytotoxicity against human HSC-3 cells assessed as reduction in cell viability incubated for 48 hrs by MTT assay; type: functional
[1] = Cytotoxicity against human HGF cells assessed as reduction in cell viability incubated for 48 hrs by MTT assay; type: functional
[2] = Cytotoxicity against human HPLF cells assessed as reduction in cell viability incubated for 48 hrs by MTT assay; type: functional
[3] = Cytotoxicity against human HPC cells assessed as reduction in cell viability incubated for 48 hrs by MTT assay; type: functional
Carbonic anhydrase 9 [4] = target: T1, Carbonic anhydrase 9 (Homo sapiens, UniProt Q16790); experiment: Inhibition of human CA9 preincubated for 15 mins by phenol red dye based stopped flow CO2 hydration assay
Carbonic anhydrase 12 = Carbonic anhydrase 12 (Homo sapiens, UniProt O43570); experiment: Inhibition of human CA12 preincubated for 15 mins by phenol red dye based stopped flow CO2 hydration assay
Sequence of Carbonic anhydrase 12 (O43570 whole entry): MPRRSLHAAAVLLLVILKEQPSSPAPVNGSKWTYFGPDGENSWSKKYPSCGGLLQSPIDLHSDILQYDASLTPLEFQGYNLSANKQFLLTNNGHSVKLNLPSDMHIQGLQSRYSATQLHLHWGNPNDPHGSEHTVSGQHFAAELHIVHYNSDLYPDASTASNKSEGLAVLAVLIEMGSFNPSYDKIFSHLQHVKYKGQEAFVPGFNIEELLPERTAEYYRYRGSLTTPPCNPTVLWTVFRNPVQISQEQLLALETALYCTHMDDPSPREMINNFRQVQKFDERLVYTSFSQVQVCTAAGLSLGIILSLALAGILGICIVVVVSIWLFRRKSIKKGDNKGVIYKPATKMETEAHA

Carbonic anhydrase 1 [5] = target: T2, Carbonic anhydrase 1 (Homo sapiens, UniProt P00915)
T2 sequence (P00915 whole entry): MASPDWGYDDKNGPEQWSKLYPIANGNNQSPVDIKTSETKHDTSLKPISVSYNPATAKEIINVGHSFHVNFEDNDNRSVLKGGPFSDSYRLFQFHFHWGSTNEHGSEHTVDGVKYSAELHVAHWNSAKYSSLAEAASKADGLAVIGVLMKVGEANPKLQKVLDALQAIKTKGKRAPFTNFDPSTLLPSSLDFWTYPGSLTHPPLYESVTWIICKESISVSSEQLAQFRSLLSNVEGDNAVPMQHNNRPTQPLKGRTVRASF

Carbonic anhydrase 9 [6] = target: T1, Carbonic anhydrase 9; experiment: Inhibition of human CA9
Mus musculus [7] = organism: Mus musculus; experiment: Antidepressant activity in Swiss albino mouse assessed as decrease in immobility time by forced swimming test; type: functional
Mus musculus [8] = organism: Mus musculus; experiment: Antidepressant activity in Swiss albino mouse assessed as decrease in immobility time by tail suspension test; type: functional
[9] = Antioxidant activity assessed as DPPH radical scavenging activity; type: functional
MCF7 = experiment: Cytotoxicity against human MCF7 cells; type: functional, cell-based
Acetylcholinesterase = Acetylcholinesterase (Homo sapiens, UniProt P22303)
Sequence of Acetylcholinesterase (P22303 whole entry): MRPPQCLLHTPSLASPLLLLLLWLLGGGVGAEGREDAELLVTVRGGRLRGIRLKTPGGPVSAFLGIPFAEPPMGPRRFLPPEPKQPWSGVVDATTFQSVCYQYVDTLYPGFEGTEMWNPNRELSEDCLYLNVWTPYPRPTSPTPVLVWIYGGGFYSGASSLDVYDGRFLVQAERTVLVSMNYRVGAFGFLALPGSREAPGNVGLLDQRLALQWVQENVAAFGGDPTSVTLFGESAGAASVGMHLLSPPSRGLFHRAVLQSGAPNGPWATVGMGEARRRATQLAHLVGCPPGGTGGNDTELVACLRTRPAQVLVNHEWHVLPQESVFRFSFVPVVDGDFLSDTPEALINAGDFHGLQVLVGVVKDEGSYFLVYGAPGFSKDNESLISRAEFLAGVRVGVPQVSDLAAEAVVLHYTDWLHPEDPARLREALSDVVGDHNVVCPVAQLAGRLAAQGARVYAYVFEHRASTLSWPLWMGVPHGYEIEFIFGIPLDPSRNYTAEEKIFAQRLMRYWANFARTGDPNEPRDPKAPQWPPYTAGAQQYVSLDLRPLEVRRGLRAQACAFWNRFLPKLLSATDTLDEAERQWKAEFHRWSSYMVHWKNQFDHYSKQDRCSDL

Carbonic anhydrase 1 [10] = target: T2, Carbonic anhydrase 1; experiment: Inhibition of human recombinant CA1
Carbonic anhydrase 2 [11] = target: T3, Carbonic anhydrase 2 (Homo sapiens, UniProt P00918); experiment: Inhibition of human recombinant CA2
Carbonic anhydrase 4 = Carbonic anhydrase 4 (Homo sapiens, UniProt P22748); experiment: Inhibition of human recombinant CA4
Sequence of Carbonic anhydrase 4 (P22748 whole entry): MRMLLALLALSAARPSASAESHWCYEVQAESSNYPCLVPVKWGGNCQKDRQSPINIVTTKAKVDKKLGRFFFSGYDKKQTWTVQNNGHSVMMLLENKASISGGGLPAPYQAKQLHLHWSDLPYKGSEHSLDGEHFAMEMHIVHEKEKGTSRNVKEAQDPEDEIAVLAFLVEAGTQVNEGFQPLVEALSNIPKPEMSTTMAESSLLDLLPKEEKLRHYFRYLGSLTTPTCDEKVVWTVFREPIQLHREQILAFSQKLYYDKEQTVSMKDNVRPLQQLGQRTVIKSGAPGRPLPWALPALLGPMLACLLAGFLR

Carbonic anhydrase 9 [12] = target: T1, Carbonic anhydrase 9
Mus musculus [13] = experiment: Antidiabetic activity against albino mouse assessed as reduction in blood glucose level at 0.2 mmol/Kg relative to control; type: functional; design: scale not given: the % may be the effect or the level left
Aspergillus clavatus = experiment: Antifungal activity against Aspergillus clavatus; type: functional
Candida albicans [14] = experiment: Antifungal activity against Candida albicans; type: functional
Aspergillus niger = experiment: Antifungal activity against Aspergillus niger; type: functional
Candida albicans [15] = experiment: Antifungal activity against Candida albicans by agar dilution method; type: functional
Carbonic anhydrase 2 [16] = target: T3, Carbonic anhydrase 2

SMILES: COC(=O)C1N=NN(CC(=O)N2N=C(c3nnn(Cc4ccccc4)c3C)CC2c2ccc(OC)cc2)C1C(=O)OC (configuration not stated)
- MIC (Staphylococcus aureus): 3.9 µg/mL (≈ 6.79 µM)

SMILES: NS(=O)(=O)c1ccc(N2N=C(c3ccc(O)cc3)CC2c2ccc(Cl)cc2)cc1 (configuration not stated)
- CC50 (Ca9-22): 39.3 µM
- CC50 (HSC-2): 39.3 µM
- CC50 (HSC-3): 39.3 µM
- CC50 [1]: 39.3 µM
- CC50 [2]: 39.3 µM
- CC50 [3]: 39.3 µM
- Ki (Carbonic anhydrase 9 [4]): 0.0535 µM
- Ki (Carbonic anhydrase 12): 0.0062 µM

SMILES: COc1ccc(C2=NN(C(=O)c3ccc(S(N)(=O)=O)cc3)C(c3ccc(OC)c(OC)c3)C2)c(OC)c1 (configuration not stated)
- Ki (Carbonic anhydrase 1 [5]): 2.67 µM
- Ki (Carbonic anhydrase 9 [6]): 0.0055 µM

SMILES: Cc1nc(-c2ccc(F)cc2)ccc1C1=NNC(c2cc(F)cc(F)c2)C1 (configuration not stated)
- Time (Mus musculus [7]): 66.67 s
- Time (Mus musculus [8]): 70.33 s

SMILES: COc1ccc2c(c1)cc(/C=C/C(=O)c1cc(Br)ccc1O)c1nnnn12
- IC50 [9]: 25.4 µg/mL (≈ 59.7 µM)

SMILES: CN1N=C2C(C[C@H]3[C@@H]4CCc5cc(O)ccc5[C@H]4CC[C@]23C)C1c1cccs1 (some centres not stated)
- IC50 (MCF7): 0.043 µM

SMILES: COc1ccc(C2CC(c3ccc(F)cc3)=NN2c2ccc(S(N)(=O)=O)cc2)cc1OC (configuration not stated)
- Ki (Acetylcholinesterase): 0.0377 µM

SMILES: CC(=O)N1N=C(c2ccc(OS(N)(=O)=O)cc2)CC1c1ccccc1Cl (configuration not stated)
- Ki (Carbonic anhydrase 1 [10]): 2.46 µM
- Ki (Carbonic anhydrase 2 [11]): 0.0004 µM
- Ki (Carbonic anhydrase 4): 0.0177 µM
- Ki (Carbonic anhydrase 9 [12]): 0.0148 µM

SMILES: O=C(Nc1ccc(Cl)cc1)NS(=O)(=O)c1ccc(N2N=C(c3ccc(Br)cc3)CC2c2ccc(F)cc2)cc1 (configuration not stated)
- Activity (Mus musculus [13]): 16%

SMILES: CCOC(=O)C1N=NN(CC(=O)N2N=C(c3nnn(Cc4ccccc4)c3C)CC2c2cccs2)C1C(=O)OCC (configuration not stated)
- MIC (Staphylococcus aureus): 3.9 µg/mL (≈ 6.74 µM)

SMILES: COc1ccc(C2CC(c3ccc(O)cc3)=NN2c2ccc(S(N)(=O)=O)cc2)cc1 (configuration not stated)
- CC50 (Ca9-22): 39.3 µM
- CC50 (HSC-2): 39.3 µM
- CC50 (HSC-3): 39.3 µM
- CC50 [1]: 39.3 µM
- CC50 [2]: 39.3 µM
- CC50 [3]: 39.3 µM
- Ki (Carbonic anhydrase 9 [4]): 0.0535 µM
- Ki (Carbonic anhydrase 12): 0.0062 µM

SMILES: O=C(c1ccncc1)N1N=C(c2ccccc2Cl)CC1c1cc2ccccc2nc1Cl (configuration not stated)
- MIC (Aspergillus clavatus): 12.5 µg/mL (≈ 27.9 µM)
- MIC (Candida albicans [14]): 12.5 µg/mL (≈ 27.9 µM)
- MIC (Aspergillus niger): 12.5 µg/mL (≈ 27.9 µM)

SMILES: Cc1ccc2cc(C3CC(c4cc(Br)ccc4O)=NN3)c3nnnn3c2c1 (configuration not stated)
- MIC (Candida albicans [15]): 25 µg/mL (≈ 59.1 µM)

SMILES: COc1ccc(C2=NN(C(C)=O)C(c3ccc(OS(N)(=O)=O)cc3)C2)cc1 (configuration not stated)
- Ki (Carbonic anhydrase 1 [10]): 2.46 µM
- Ki (Carbonic anhydrase 2 [11]): 0.0004 µM
- Ki (Carbonic anhydrase 4): 0.0177 µM
- Ki (Carbonic anhydrase 9 [12]): 0.0148 µM

SMILES: Cc1ccc(C2=NN(c3ccc(S(=O)(=O)NC(=O)Nc4ccc(Cl)cc4)cc3)C(c3ccc(F)cc3)C2)cc1 (configuration not stated)
- Activity (Mus musculus [13]): 16%

SMILES: O=C(c1ccncc1)N1N=C(c2ccc(Br)cc2)CC1c1cc2ccccc2nc1Cl (configuration not stated)
- MIC (Aspergillus clavatus): 50 µg/mL (≈ 102 µM)
- MIC (Candida albicans [14]): 12.5 µg/mL (≈ 25.4 µM)
- MIC (Aspergillus niger): 12.5 µg/mL (≈ 25.4 µM)

SMILES: C[C@]12CC[C@@H]3c4ccc(O)cc4CC[C@H]3[C@@H]1CC1C2=NN(c2ccccc2)C1c1ccc(Br)cc1 (some centres not stated)
- IC50 (MCF7): 0.043 µM

SMILES: Cc1nc(-c2cccc(Cl)c2Cl)ccc1C1=NNC(c2ccc(Br)cc2)C1 (configuration not stated)
- Time (Mus musculus [7]): 66.67 s
- Time (Mus musculus [8]): 70.33 s

SMILES: COc1ccc(-c2ccc(C3=NNC(c4ccc(Br)cc4)C3)c(C)n2)cc1OC (configuration not stated)
- Time (Mus musculus [7]): 66.67 s
- Time (Mus musculus [8]): 70.33 s

SMILES: NS(=O)(=O)c1ccc(N2N=C(c3ccc(O)cc3)CC2c2ccccc2)cc1 (configuration not stated)
- Ki (Carbonic anhydrase 1 [5]): 0.317 µM
- CC50 (Ca9-22): 39.3 µM
- CC50 (HSC-2): 39.3 µM
- CC50 (HSC-3): 39.3 µM
- CC50 [1]: 39.3 µM
- CC50 [2]: 39.3 µM
- CC50 [3]: 39.3 µM
- Ki (Carbonic anhydrase 9 [4]): 0.0535 µM
- Ki (Carbonic anhydrase 12): 0.0062 µM
- Ki (Carbonic anhydrase 2 [16]): 0.412 µM

SMILES: O=C(c1ccncc1)N1N=C(c2cccc([N+](=O)[O-])c2)CC1c1cc2ccccc2nc1Cl (configuration not stated)
- MIC (Aspergillus clavatus): 12.5 µg/mL (≈ 27.3 µM)
- MIC (Candida albicans [14]): 12.5 µg/mL (≈ 27.3 µM)
- MIC (Aspergillus niger): 12.5 µg/mL (≈ 27.3 µM)

SMILES: COc1ccc2c(c1)cc(C1CC(c3cc(Br)ccc3O)=NO1)c1nnnn12 (configuration not stated)
- IC50 [9]: 26.5 µg/mL (≈ 60.2 µM)

SMILES: Cc1nc(-c2ccc(Br)cc2)ccc1C1=NNC(c2cc(F)cc(F)c2)C1 (configuration not stated)
- Time (Mus musculus [7]): 66.67 s
- Time (Mus musculus [8]): 70.33 s

SMILES: NS(=O)(=O)c1ccc(N2N=C(c3ccc(O)cc3)CC2c2ccc(F)cc2)cc1 (configuration not stated)
- CC50 (Ca9-22): 39.3 µM
- CC50 (HSC-2): 39.3 µM
- CC50 (HSC-3): 39.3 µM
- CC50 [1]: 39.3 µM
- CC50 [2]: 39.3 µM
- CC50 [3]: 39.3 µM
- Ki (Carbonic anhydrase 9 [4]): 0.0535 µM
- Ki (Carbonic anhydrase 12): 0.0062 µM

SMILES: Cc1ccc(C2=NN(c3ccc(S(=O)(=O)NC(=O)NC4CCCCC4)cc3)C(c3ccc(F)cc3)C2)cc1 (configuration not stated)
- Activity (Mus musculus [13]): 16%

SMILES: NS(=O)(=O)c1ccc(N2N=C(c3ccc(O)cc3)CC2c2ccc(Br)cc2)cc1 (configuration not stated)
- CC50 (Ca9-22): 39.3 µM
- CC50 (HSC-2): 39.3 µM
- CC50 (HSC-3): 39.3 µM
- CC50 [1]: 39.3 µM
- CC50 [2]: 39.3 µM
- CC50 [3]: 39.3 µM
- Ki (Carbonic anhydrase 9 [4]): 0.0535 µM
- Ki (Carbonic anhydrase 12): 0.0062 µM

SMILES: Cc1nc(-c2cccc(Cl)c2Cl)ccc1C1=NNC(c2cc(F)cc(F)c2)C1 (configuration not stated)
- Time (Mus musculus [7]): 66.67 s
- Time (Mus musculus [8]): 70.33 s
